Measurements taken from patent publication US12662491B2 (Redona Therapeutics, Inc., priority 2020, dated 2026).
Where a name gives a salt, the structure may show the parent alone.

Molecular target: T1, Zcchc11 enzyme (Homo sapiens, UniProt Q5TAX3)
T1 construct: made in house; host or cells: HEK293 cells (Zcchc11); E. coli Rosetta II (LIN28A)
T1 sequence (Q5TAX3 212-1420): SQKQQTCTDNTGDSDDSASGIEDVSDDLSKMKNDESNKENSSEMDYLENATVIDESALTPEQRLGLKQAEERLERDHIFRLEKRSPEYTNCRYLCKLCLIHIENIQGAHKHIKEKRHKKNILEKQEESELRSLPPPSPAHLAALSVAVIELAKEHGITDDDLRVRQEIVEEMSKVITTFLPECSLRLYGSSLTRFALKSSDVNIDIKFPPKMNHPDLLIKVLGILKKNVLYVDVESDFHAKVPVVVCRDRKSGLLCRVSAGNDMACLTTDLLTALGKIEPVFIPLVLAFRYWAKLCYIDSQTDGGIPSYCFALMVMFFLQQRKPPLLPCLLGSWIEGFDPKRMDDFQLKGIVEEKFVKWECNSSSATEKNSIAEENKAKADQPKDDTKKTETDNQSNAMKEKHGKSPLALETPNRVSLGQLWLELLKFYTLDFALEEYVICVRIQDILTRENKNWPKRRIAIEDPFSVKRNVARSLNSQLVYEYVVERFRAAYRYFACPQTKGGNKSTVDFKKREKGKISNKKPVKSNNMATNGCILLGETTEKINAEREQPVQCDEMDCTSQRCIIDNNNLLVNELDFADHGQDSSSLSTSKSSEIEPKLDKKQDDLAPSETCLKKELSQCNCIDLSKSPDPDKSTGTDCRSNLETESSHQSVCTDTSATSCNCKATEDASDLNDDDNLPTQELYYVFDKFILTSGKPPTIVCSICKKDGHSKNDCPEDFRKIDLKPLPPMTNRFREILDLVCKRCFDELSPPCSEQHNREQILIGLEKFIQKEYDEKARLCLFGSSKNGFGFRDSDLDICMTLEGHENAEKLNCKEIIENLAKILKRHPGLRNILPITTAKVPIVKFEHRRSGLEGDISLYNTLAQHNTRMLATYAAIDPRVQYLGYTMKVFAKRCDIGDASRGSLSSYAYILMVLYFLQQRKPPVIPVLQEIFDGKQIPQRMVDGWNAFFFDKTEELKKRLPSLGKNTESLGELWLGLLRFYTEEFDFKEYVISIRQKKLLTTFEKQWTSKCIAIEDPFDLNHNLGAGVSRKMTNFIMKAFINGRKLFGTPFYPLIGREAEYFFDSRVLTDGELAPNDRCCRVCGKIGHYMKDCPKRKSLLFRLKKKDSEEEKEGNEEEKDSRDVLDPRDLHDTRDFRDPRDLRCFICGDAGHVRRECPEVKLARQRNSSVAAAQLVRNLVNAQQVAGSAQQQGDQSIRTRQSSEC
Test: TUTase assay (Zcchc11 assay, Lin28a-dependent polyuridylation of pre-let-7)
Format: biochemical
Conditions: LIN28A 10 nM, Zcchc11 0.2 nM, 5′-fluorescein pre-let-7 miRNA 2 nM, UTP 5 uM, room temperature, 30 minutes pre-incubation; read-out: Potency Lin28a-dep Z11 IC50
Summary of the method: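 Potency is measured as inhibition of LIN28A-driven U-tail addition to 2 nM pre-let-7 by 0.2 nM HEK293-derived Zcchc11 fragment with 5 uM UTP at room temperature. Tail growth appears as fluorescein quenching by an annealing rhodamine-A20 probe.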

Row | IC50 [nM] | SMILES
1 | ≤ 1000 | NCCOc1cccnc1OC[C@H]1CCCN1c1cc2c(cc1Cl)c(=O)c(C(=O)O)cn2-c1ccc(Br)nc1 [Example 50, (R)-7-(2-(((3-(2-aminoethoxy)pyridin-2-yl)oxy)methyl)pyrrolidin-1-yl)-1-(6-bromopyridin-3-yl)-6-chloro-4-oxo-1,4-dihydroquinoline-3-carboxylic acid]

Same assay, conditions: Lin28a-dependent Zcchc11 (Z11) TUTase activity; read-out: Potency Lin28a-dep Z11 IC50

Row | IC50 [nM] | SMILES
2 | ≤ 1000 | O=C(O)c1cn(-c2cnn(C3CNC3)c2)c2nc(N3CCC[C@@H]3COc3ncccc3F)c(Cl)cc2c1=O (racemic) [Compound 192, rac-(R)-1-(1-(azetidin-3-yl)-1H-pyrazol-4-yl)-6-chloro-7-(2-(((3-fluoropyridin-2-yl)oxy)methyl)pyrrolidin-1-yl)-4-oxo-1,4-dihydro-1,8-naphthyridine-3-carboxylic acid hydrochloride]
3 | ≤ 1000 | CN(C)C1CN(c2ccc(-n3cc(C(=O)O)c(=O)c4cc(Cl)c(N5CC(c6cnn(C)c6)C[C@@H]5COc5ncccc5Cl)cc43)cn2)C1 (mixture of isomers) [Compound 188, rac-6-chloro-7-((2R)-2-(((3-chloropyridin-2-yl)oxy)methyl)-4-(1-methyl-1H-pyrazol-4-yl)pyrrolidin-1-yl)-1-(6-(3-(dimethyl-amino)azetidin-1-yl)pyridin-3-yl)-4-oxo-1,4-dihydro-quinoline-3-carboxylic acid]
4 | ≤ 1000 | COc1ccc(Cl)c(OC[C@H]2CCCN2c2cc3c(cc2Cl)c(=O)c(C(=O)O)cn3-c2ccc(N)nc2)n1 [Compound 294, (R)-1-(6-aminopyridin-3-yl)-6-chloro-7-(2-(((3-chloro-6-methoxy-pyridin-2-yl)oxy)methyl)pyrrolidin-1-yl)-4-oxo-1,4-dihydro-quinoline-3-carboxylic acid]
5 | ≤ 1000 | CN(C)C1CN(c2ccc(-n3cc(C(=O)O)c(=O)c4cc(Cl)c(N5CCC[C@@H]5COc5nc6c(cc5Cl)ncn6C)cc43)cn2)C1 (racemic) [Compound 274, rac-(R)-6-chloro-7-(2-(((6-chloro-3-methyl-3H-imidazo [4,5-b]pyridin-5-yl)oxy)methyl)pyrrolidin-1-yl)-1-(6-(3-(dimethyl-amino)azetidin-1-yl)pyridin-3-yl)-4-oxo-1,4-dihydro-quinoline-3-carboxylic acid]
6 | ≤ 1000 | CN(C)C1CN(c2ccc(-n3cc(C(=O)O)c(=O)c4cc(Cl)c(N5CC6(CCC6)CC5COc5ncccc5Cl)cc43)cn2)C1 (stereo not shown) [Compound 226, 6-Chloro-7-(7-(((3-chloropyridin-2-yl)oxy)methyl)-6-azaspiro [3.4]octan-6-yl)-1-(6-(3-(dimethyl-amino)azetidin-1-yl)pyridin-3-yl)-4-oxo-1,4-dihydro-quinoline-3-carboxylic acid compound with formic acid (1:1)]
7 | 10000 to 50000 | O=C(O)c1cn(-c2ccc(O)cc2F)c2c(F)c(N3CCC[C@H]3COc3ccccn3)c(F)cc2c1=O [Compound 82, (S)-6,8-difluoro-1-(2-fluoro-4-hydroxy-phenyl)-4-oxo-7-(2-((pyridin-2-yloxy)methyl)pyrrolidin-1-yl)-1,4-dihydro-quinoline-3-carboxylic acid]
8 | ≤ 1000 | O=C(O)c1cn(-c2ccc(F)c(O)c2)c2cc(N3CCC[C@@H]3COc3ncccc3Cl)c(Cl)cc2c1=O [Compound 130, (R)-6-chloro-7-(2-(((3-chloropyridin-2-yl)oxy)methyl)pyrrolidin-1-yl)-1-(4-fluoro-3-hydroxy-phenyl)-4-oxo-1,4-dihydro-quinoline-3-carboxylic acid]

Same assay, conditions: Lin28a-dependent Zcchc11 (Z11) TUTase assay; read-out: Potency Lin28a-dep Z11 IC50

Row | SMILES | IC50 [nM]
9 | O=C(O)c1cn(-c2ccc(O)nn2)c2cc(N3CCC[C@@H]3COc3ccccn3)c(F)cc2c1=O [Example 410, (R)-6-fluoro-1-(6-hydroxypyridazin-3-yl)-4-oxo-7-(2-((pyridin-2-yloxy)methyl)pyrrolidin-1-yl)-1,4-dihydroquinoline-3-carboxylic acid] | 1000 to 10000
10 | CNc1ccc(-n2cc(C(=O)O)c(=O)c3cc(Cl)c(N4CCC[C@@H]4COc4ncccc4Cl)cc32)cn1 [Example 417, (R)-6-chloro-7-(2-(((3-chloropyridin-2-yl)oxy)methyl)pyrrolidin-1-yl)-1-(6-(methylamino)pyridin-3-yl)-4-oxo-1,4-dihydroquinoline-3-carboxylic acid] | ≤ 1000
11 | O=C(O)c1cn(-c2ccc(F)cn2)c2cc(N3CCC[C@@H]3COc3ccccn3)c(F)cc2c1=O [Example 380, (R)-6-fluoro-1-(5-fluoropyridin-2-yl)-4-oxo-7-(2-((pyridin-2-yloxy)methyl)pyrrolidin-1-yl)-1,4-dihydroquinoline-3-carboxylic acid] | 1000 to 10000
12 | O=C(O)c1cn(-c2ccccc2F)c2cc(N3CCC[C@@H]3COc3ccccn3)c(F)cc2c1=O [Example 373, (R)-6-fluoro-1-(2-fluorophenyl)-4-oxo-7-(2-((pyridin-2-yloxy)methyl)pyrrolidin-1-yl)-1,4-dihydroquinoline-3-carboxylic acid] | 1000 to 10000
13 | O=C(O)c1cn(-c2ccc(O)cc2Cl)c2cc(N3CCC[C@@H]3COc3ccccn3)c(F)cc2c1=O [Example 384, (R)-1-(2-chloro-4-hydroxyphenyl)-6-fluoro-4-oxo-7-(2-((pyridin-2-yloxy)methyl)pyrrolidin-1-yl)-1,4-dihydroquinoline-3-carboxylic acid] | 1000 to 10000

Further lines, results first:

Row | IC50 [nM] | SMILES
14 | ≤ 1000 | Cn1ccnc1-n1cc(C(=O)O)c(=O)c2cc(Cl)c(N3CCC[C@@H]3COc3ncccc3Cl)cc21 [Example 568, (R)-6-chloro-7-(2-(((3-chloropyridin-2-yl)oxy)methyl)pyrrolidin-1-yl)-1-(1-methyl-1H-imidazol-2-yl)-4-oxo-1,4-dihydroquinoline-3-carboxylic acid]
15 | ≤ 1000 | CN(C)C1CN(c2ccc(-n3cc(C(=O)O)c(=O)c4cc(Cl)c(N5C6CC6C[C@@H]5COc5ncccc5Cl)cc43)cn2)C1 (stereo partly drawn) [Example 628, 6-chloro-7-((3R)-3-(((3-chloropyridin-2-yl)oxy)methyl)-2-azabicyclo[3.1.0]hexan-2-yl)-1-(6-(3-(dimethylamino)azetidin-1-yl)pyridin-3-yl)-4-oxo-1,4-dihydroquinoline-3-carboxylic acid]
16 | ≤ 1000 | Cn1cncc1-n1cc(C(=O)O)c(=O)c2cc(Cl)c(N3CCC[C@@H]3COc3ncccc3Cl)cc21 [Example 567, (R)-6-chloro-7-(2-(((3-chloropyridin-2-yl)oxy)methyl)pyrrolidin-1-yl)-1-(1-methyl-1H-imidazol-5-yl)-4-oxo-1,4-dihydroquinoline-3-carboxylic acid]
17 | ≤ 1000 | CN(C)C1CN(c2ccc(-n3cc(C(=O)O)c(=O)c4cc(Cl)c(N5CCC[C@@H]5COc5ncccc5Cl)cc43)cn2)C1 [Example 476, (R)-6-chloro-7-(2-(((3-chloropyridin-2-yl)oxy)methyl)pyrrolidin-1-yl)-1-(6-(3-(dimethyl-amino)azetidin-1-yl)pyridin-3-yl)-4-oxo-1,4-dihydroquinoline-3-carboxylic acid]
18 | ≤ 1000 | CN(C)C1CN(c2ccc(-n3cc(C(=O)O)c(=O)c4cc(Cl)c(N5CC(c6cccnc6)C[C@@H]5COc5ncccc5Cl)cc43)cn2)C1 (stereo partly drawn) [Example 599, 6-chloro-7-((2R)-2-(((3-chloropyridin-2-yl)oxy)methyl)-4-(pyridin-3-yl)pyrrolidin-1-yl)-1-(6-(3-(dimethylamino)azetidin-1-yl)pyridin-3-yl)-4-oxo-1,4-dihydroquinoline-3-carboxylic acid]
19 | ≤ 1000 | CN(C)C1CN(c2ccc(-n3cc(C(=O)O)c(=O)c4cc(F)c(N5C[C@@H](F)C[C@@H]5COc5ncccc5F)cc43)cn2)C1 [Example 465, 1-(6-(3-(dimethylamino)azetidin-1-yl)pyridin-3-yl)-6-fluoro-7-((2R,4S)-4-fluoro-2-(((3-fluoropyridin-2-yl)oxy)methyl)pyrrolidin-1-yl)-4-oxo-1,4-dihydroquinoline-3-carboxylic acid]
